According to patent publication US20220273823A1, “THERANOSTIC CONJUGATES” (Ariel Scientific Innovations Ltd., priority 2019, published 2022):
Where two headings read alike, the source gives them in different places.

Key:
CHO = test: XTT cell survival assay (growth inhibition), CHO; type: cell-based, Chinese hamster; settings: up to 25 μM
Procedure: (§1) The cytotoxicity of the peptide-drug conjugates was determined by measuring the mitochondrial enzyme activity, using a commercial XTT assay kit. All samples were prepared in PBS pH 7.4 contained 3% DMSO. The Cells were cultured in micro wells at a concentration 5-10×10^4 cells/well. The cells were washed and fresh cell medium containing different concentrations (up to 25 μM) of the conjugates were added and the cells were incubated for 10 minutes. The cultures were washed and then given a fresh medium and cultured for 48 hours and 72 hours. At the end of the second incubation, XTT reagent was added and the cells were re-incubated for additional 2-4 hours. During that time the absorbencies in the wells were measured with a TECAN Infinite M200 ELISA reader at 480 nm and 680 nm. The difference in the absorbencies measurements at these two wavelengths was used for calculating the percentage Growth Inhibition (GI) in test wells compared to two controls: cells that were exposed to the medium and solvent, and those which were exposed to a solvent-free medium. All the tests were done in triplicate.

Panc-1 = test: XTT cell survival assay (growth inhibition), Panc-1; type: cell-based, human; settings: Panc-1, XTT, up to 25 μM
Procedure: as §1

[1] = Absorption and emission spectra of XCy, XCy-CLB and OCTA-G-XCy-CLB in PB and CM; type: physicochemical; settings: for λmaxFl: λex 650 nm; for absorption maximum / fluorescence: in PB and CM
Procedure: The absorption and emission spectra of XCy, XCy-CLB and OCTA-G-XCy-CLB were investigated in two different conditions, 10 mM phosphate buffer pH 7.4 containing 10% methanol (PB) and cell medium pH 7.4 containing 10% methanol (CM) (see, Table 1 below). CM was taken as a model of normal physiological conditions during drug delivery in the experiments with cells. A RPMI-1640 standard cell medium that contains 50 mL fetal bovine serum (FBS), 5 mL penicillin (10,000 U/mL), 5 mL streptomycin (10 mg/mL), 5 mL of 200 mM glutamine, and 5.3 mg/L phenol red indicator was utilized. FBS contains enzyme aspartate-aminotransferase that facilitates the ester bond cleavage.
(§2) Absorption spectra were recorded on a Jasco V-730 UV-Vis spectrophotometer and the fluorescence spectra were measured on Edinburgh FS5 spectrofluorometer. The absorption and fluorescence spectra were measured in 1-cm quartz cells at about 0.5 μM dye concentrations in PB 10 mmol buffer pH 7.4 at 25° C. and cell medium pH 7.4. Excitation wavelength was 650 nm. All the solutions were filtered in PVDF 0.45 μm filter before taking spectrum.

[2] = Time-dependent absorption/fluorescence CLB cleavage profiles of XCy-CLB and OCTA-G-XCy-CLB in PB and cell medium; type: in vitro ADME; settings: read-out: CLB release half-life τ1/2 (converted)
Procedure: To estimate the rate of the CLB release, the time-dependent absorption and fluorescence spectra of XCy-CLB and OCTA-G-XCy-CLB were measured in PB and CM (see, FIGS. 5A-H). With respect to time, the absorption band at about 600 nm decreases, a new band at about 680 nm increases and a fluorescence band subsequently appears at ˜708 nm (λex=650 nm).
Based of the time-dependent absorption and emission spectra, corresponding drug cleavage profiles were obtained (see, FIGS. 6A-B) and the drug release rates were quantified by half-lives (τ1/2). The cleavage profiles and half-lives obtained spectrophotometrically and spectrofluorometrically almost coincide. […] The release of CLB from OCTA-G-XCy-CLB in CM (τ1/2˜25 min) is […] faster than that in PB τ1/2 ˜2.5 h. Thus, the drug release for both XCy-CLB and OCTA-G-XCy-CLB in CM is much faster compared to PB. The obtained half-lives of the ester bond cleavage in these media were found in good agreement with some reported data. Linkage of OCTA to the conjugate accelerates the drug release by factor of 6 in PB and 1.3 in CM.
as §2

[3] = Real time fluorescence microscopy monitoring of CLB release in Panc-1 cells; type: cell-based; settings: human, pH 7.4, Panc-1, 10 min incubation with 10 μM, 37° C., read-out: CLB cleavage half-life τ1/2
Procedure: (§3) In the next step, the inventors investigated the performance of OCTA-G-XCy-CLB in real time monitoring of drug delivery and drug release into human pancreatic cancer cell line (Panc-1). As a negative control, Chinese hamster ovary cell line (CHO) was employed. Panc-1 contains overexpressed somatostatin receptors SSTR-2 and SSTR-5 while the CHO has the decreased number of these receptors. Panc-1 and CHO were incubated at 37° C. for 10 min with 10 μM OCTA-G-XCy-CLB in PBS pH 7.4 containing 3% DMSO and washed thoroughly with PBS pH 7.4 to remove excess conjugate. Then the fluorescence microscopy images were taken over time (FIGS. 7A, B). The fluorescence intensities for both cell lines gradually increase over time signaling the CLB release. […]
(§4) To monitor drug release, Panc-1 and CHO cell lines were grown in six-well culture plates and then washed with PBS (pH 7.4) two times after that incubated for 10 min with 10 μM OCT(N)-G-XCy-CLB in PBS pH 7.4 containing 3% DMSO. […] The washed cell samples were resuspended in PBS and immediately analyzed the fluorescence changes by using fluorescent microscope. […]
(§5) The band intensities in a representative experiment were quantified by creating region of interest (ROI) around each image and the relative fluorescence intensity of each sample was measured (via the “Measure” function) with Image J software.

[4] = Real time fluorescence microscopy monitoring of CLB release in CHO cells (negative control); type: cell-based, Chinese hamster; settings: hamster, pH 7.4, 10 min incubation with 10 μM, 37° C., read-out: CLB cleavage half-life τ1/2 (converted)
Procedure: as §3, §4, §5

[5] = Spectral properties of RD, IRD-CLB and 5-CLB in PB and CM; type: physicochemical
Procedure: The spectral properties of the dye RD and its conjugates IRD-CLB and 5-CLB were measured at the concentrations (c) of 0.6 μM in 10 mM phosphate buffer pH 7.5 (PB) and cell medium pH 7.5 (CM), both containing 20% of acetonitrile (ACN) to improve solubility of the compounds.
Table 2 presents the absorption (λmaxAb) and emission (λmaxFl) maxima, extinction coefficients (ε) and fluorescence quantum yields (ΦF) of the RD dye and IRD-CLB and 5-CLB conjugates measured at 25° C. in 10 mM phosphate buffer pH 7.5 (PB) and cell medium pH 7.5 (CM).
The biodegradable ester linker (BL) in IRD-CLB and 5-CLB can be hydrolyzed to release free CLB and, accordingly, IRD turns into RD, which is accompanied by a noticeable change in the spectral properties. The time-dependent emission spectra were recorded in PB and CM (see, FIGS. 9A-D) using the excitation wavelengths 720 nm and 532 nm. The first one enabled monitoring of the decrease in the concentration of IRD-CLB and 5-CLB, while the second one—the increase in the concentration of RD and OctA-RD. Only the NIR fluorescence of IRD-CLB and 5-CLB was detected, when excited at 720 nm; and only the red fluorescence of RD and OctA-RD was detected, when excited at 532 nm.
Absorption spectra were recorded on a Jasco V-730 UV-Vis spectrophotometer and the fluorescence spectra were measured on Edinburgh FS5 spectrofluorometer. The absorption and fluorescence spectra and the quantum yields (ΦF) were measured in a 1-cm quartz cell at ˜0.5 μM dye concentrations in PB 10 mmol buffer pH 7.4 at 25° C. and cell medium pH 7.4. Excitation wavelength was 720 nm and 532 nm. The recorded fluorescence spectra were corrected using the wavelength-dependent instrument sensitivity coefficients. Absorption and emission maxima were measured with accuracy of ±0.3 nm and ±0.5 nm, respectively, and rounded. For the determination of the quantum yields, the integrated relative intensities were measured versus ICG™ in methanol as the reference (ΦF=0.043) and Cy3™ in PBS (ΦF=0.043). The absorbance values measured for the samples and the reference at the excitation wavelength were 0.04-0.06 measured in a 1-cm cell. The absolute quantum yields were calculated according to Equation 1.

[6] = CM: cell medium pH 7.4 containing 10% methanol
[7] = PB: 10 mM phosphate buffer pH 7.4 containing 10% methanol
[8] = PB:ACN (4:1, v/v), 25° C., c=0.6 μM

O=C(O)CCCc1ccc(N(CCCl)CCCl)cc1 [CLB, chlorambucil]
Growth Inhibition (GI) / toxicity (CHO): neither free OCT, nor free CLB exhibited detectible toxicity | Growth Inhibition (GI) / toxicity (Panc-1): neither free OCT, nor free CLB exhibited detectible toxicity

CC1(C)C(/C=C/C2=C3Oc4cc(OC(=O)CCCc5ccc(N(CCCl)CCCl)cc5)ccc4C=C3CCC2)=[N+](CCCCCC(=O)O)c2ccccc21 [XCy-CLB, (E)-2-(2-(6-((4-(4-(bis(2-chloroethyl)amino)phenyl)butanoyl)oxy)-2,3-dihydro-1H-xanthen-4-yl)vinyl)-1-(5-carboxypentyl)-3,3-dimethyl-3H-indol-1-ium]
λmaxAbs [1, 6]: 602 nm | λmaxFl [1, 6]: No fl. | λmaxAbs [1, 7]: 598 nm | λmaxFl [1, 7]: No fl. | absorption maximum [1]: ~600 nm | fluorescence [1]: not detectable | half-life ([2]; bovine, in CM (cell medium pH 7.4, esterase present)): ~0.667 h | half-life ([2]; phosphate buffer, in PB pH 7.4): ~8 h

CC1(C)C(/C=C/C2=C3Oc4cc(O)ccc4C=C3CCC2)=[N+](CCCCCC(=O)O)c2ccccc21 [XCy, (E)-1-(5-carboxypentyl)-2-(2-(6-hydroxy-2,3-dihydro-1H-xanthen-4-yl)vinyl)-3,3-dimethyl-3H-indol-1-ium]
λmaxAbs [1, 6]: 679 nm | λmaxFl [1, 6]: 713 nm | λmaxAbs [1, 7]: 681 nm | λmaxFl [1, 7]: 708 nm | absorption maximum [1]: about 680 nm | fluorescence [1]: around 710 nm

octreotide amide
Growth Inhibition (GI) / toxicity (CHO): neither free OCT, nor free CLB exhibited detectible toxicity | Growth Inhibition (GI) / toxicity (Panc-1): neither free OCT, nor free CLB exhibited detectible toxicity

C[C@@H](O)[C@H](NC(=O)[C@@H]1CSSC[C@H](NC(=O)[C@H](Cc2ccccc2)NC(=O)CCCNC(=O)CCCCC[N+]2=C(/C=C/C3=C4Oc5cc(OC(=O)CCCc6ccc(N(CCCl)CCCl)cc6)ccc5C=C4CCC3)C(C)(C)c3ccccc32)C(=O)N[C@@H](Cc2ccccc2)C(=O)N[C@@H](Cc2c[nH]c3ccccc23)C(=O)N[C@@H](CCCCN)C(=O)N[C@@H]([C@@H](C)O)C(=O)N1)C(N)=O [OCTA-G-XCy-CLB]
half-life at 10 μM [3]: ~0.417 h | λmaxAbs [1, 6]: 604 nm | λmaxFl [1, 6]: No fl. | λmaxAbs [1, 7]: 604 nm | λmaxFl [1, 7]: No fl. | absorption maximum [1]: ~600 nm | fluorescence [1]: not detectable | half-life at 0.5 μM ([2]; bovine, cell medium (contains esterase), in CM (cell medium pH 7.4, esterase present)): ~0.417 h | half-life at 0.5 μM ([2]; phosphate buffer (PB), in PB pH 7.4): ~2.5 h | Growth Inhibition (GI) / toxicity (Panc-1): significantly elevated growth inhibition compared to CHO | half-life at 10 μM [4]: ~2.5 h

CN1C(=CC=C2CCCC(=CC=C3N(CCCCCC(=O)O)c4ccccc4C3(C)C)C2=O)C(C)(C)c2ccccc21 [RD, 6-(−3,3-dimethyl-2-(−2-(−2-oxo-3-(2-(−1,3,3-trimethylindolin-2-ylidene)ethylidene)cyclohexylidene)ethylidene)indolin-1-yl)hexanoic acid]
ΦF ([5]; CM:ACN (4:1, v/v), 25° C.): 2.6% | λmaxAb ([5]; CM:ACN (4:1, v/v), 25° C.): 526 nm | λmaxFl ([5]; CM:ACN (4:1, v/v), 25° C.): 626 nm | ΦF ([5]; PB:ACN (4:1, v/v), 25° C.): 9.9% | λmaxFl ([5]; PB:ACN (4:1, v/v), 25° C.): 643 nm | λmaxAb [5, 8]: 555 nm

C[N+]1=C(C=CC2=C(OC(=O)CCCc3ccc(N(CCCl)CCCl)cc3)C(=CC=C3N(CCCCCC(=O)O)c4ccccc4C3(C)C)CCC2)C(C)(C)c2ccccc21 [IRD-CLB, 2-(−2-(−2-((4-(4-(bis(2-chloroethyl)amino)phenyl)butanoyl)oxy)-3-(2-(−1-(5-carboxypentyl)-3,3-dimethylindolin-2-ylidene)ethylidene)cyclohex-1-en-1-yl)vinyl)-1,3,3-trimethyl-3H-indol-1-ium]
ΦF ([5]; CM:ACN (4:1, v/v), 25° C.): 6.3% | λmaxAb ([5]; CM:ACN (4:1, v/v), 25° C.): 785 nm | λmaxFl ([5]; CM:ACN (4:1, v/v), 25° C.): 805 nm | emission when excited at 532 nm ([5]; PB and CM): no detectable emission | ΦF ([5]; PB:ACN (4:1, v/v), 25° C.): 2.9% | ε ([5]; PB:ACN (4:1, v/v), 25° C.): 160,000 M^−1cm^−1 | λmaxFl ([5]; PB:ACN (4:1, v/v), 25° C.): 795 nm | λmaxAb [5, 8]: 775 nm
